How the values were obtained:
[1] = test system: epinephrine antibodies (γ-globulin fraction obtained in Example 2); assay: Equilibrium dialysis method, specificity of the epinephrine antibodies; design: species or system rabbit; conditions: binding of 3H-DL-epinephrine (10μl of 3.4×10^-5 M) with 10μl of 3.4×10^-3 M compound; antibody 5.5 × 10^-6 M; 25° C; 100 = no compound
Description: The γ-globulin fraction obtained in Example 2 was dialyzed against the phosphate buffered saline and a solution of the final concentration of 0.94mg/ml was performed prepared. The γ-globulin solution was used as the antibody solution in this method. To the phosphate buffered saline used in this procedure, 0.01% of sodium metabisufite(Na2 S2 O5) and 0.015% ethylenediaminetetraacetic acid disodium salt were added.
An equilibrium dialysis apparatus of 2ml capacity was used and 500μl of the antibody solution was poured into one of a pair cell(cell A) and into another cell(cell B), 10μl of the phosphate buffered saline solution of DL-epinephrine labelled with tritium(^3 H) in a concentration of 3.4×10^-5 M and 490μl of phosphate buffered saline were introduced. They were shaked at 25° C to reach equilibrium and then radioactivity of each solution were counted. The difference of each counts was calculated and made as the standard.
Then, 500μl of γ-globulin solution was put in cell A, and in cell B were introduced 10μl of a solution of the concentration of 3.4×10^-3 M of epinephrine or one of other catecholamine or analogue compounds, 10μl of a phosphate buffered saline solution of ^3 H-epinephrine (3.4×10^-5 M) and 480μl of phosphate buffered saline. The solutions were shaked by the same manner as above and after equilibrium, the radioactivity of each solution were counted. The difference was calculated and the relative bindings were calculated from the standard.

[2] = test system: antiserum to L-dopa-BSA; assay: Ouchterlony method, specificity of antiserum to L-dopa-BSA; type: binding, rabbit; design: key: the degree of the precipitate formation were indicated by the signs of +++, ++,+-, and -, in turn; the degree of the precipitate formation were indicated by the signs of +++, ++,+-, and -, in turn; the degree of the precipitate formation were indicated by the signs of +++, ++,+-, and -, in turn; the degree of the precipitate formation were indicated by the signs of +++, ++,+-, and -, in turn; conditions: antigen 1mg/ml; antiserum after removal of antibodies to carrier material
Description: The phosphate buffered saline solution of the conjugate was mixed with an equal volume of complete Freund's adjuvant to prepare a w/o type emulsion. The emulsion was intradermally injected to rabbit foot pads in the amount of 2-3mg of the antigen. After four weeks, phosphate buffered saline solution of the conjugate (1mg) was injected into the marginal vein of the rabbit ear. (This operation can be replaced by injecting subcutaneously the w/o emulsion of phosphate buffered saline solution of the conjugate (1mg) and incomplete Freund's adjuvant). One week after the booster injection, the rabbit were bled and the antisera were obtained.
Agar was dissolved in phosphate buffered saline with warming to yield a final concentration of 1.2% and the solution was spread 2 mm in thickness on a glass plate. After cooling, 7 holes of 2mm diameter were made on the center and corners of a true hexagon with 5 mm side. In the center hole, the antiserum obtained above or diluted thereof to 1/2-1/3 with the phosphate buffered saline was filled. […] Therefore, an equal volume of BSA solution (1mg/ml) was added to the antiserum and the mixture was allowed to stand at 37° C for 1 hour, then at 4° C overnight. […] The resulting solution was passed through a DEAE-cellulose column and the first fraction (gamma globulin fraction,γG-fraction) was collected with examining the absorbance at 280nm. […]

[3] = test system: antiserum to dopamine-BSA; assay: Ouchterlony method, specificity of antiserum to dopamine-BSA; type: binding, rabbit; design: key: the degree of the precipitate formation were indicated by the signs of +++, ++,+-, and -, in turn; the degree of the precipitate formation were indicated by the signs of +++, ++,+-, and -, in turn; the degree of the precipitate formation were indicated by the signs of +++, ++,+-, and -, in turn; the degree of the precipitate formation were indicated by the signs of +++, ++,+-, and -, in turn; conditions: antigen 1mg/ml; antiserum after removal of antibodies to carrier material
Description: (§1) Agar was dissolved in phosphate buffered saline with warming to yield a final concentration of 1.2% and the solution was spread 2 mm in thickness on a glass plate. After cooling, 7 holes of 2mm diameter were made on the center and corners of a true hexagon with 5 mm side. In the center hole, the antiserum obtained above or diluted thereof to 1/2-1/3 with the phosphate buffered saline was filled. In the corner holes, the phosphate buffered saline solution of the conjugate (0.5-1.0mg/ml) and BSA were filled alternately. […] Therefore, an equal volume of BSA solution (1mg/ml) was added to the antiserum and the mixture was allowed to stand at 37° C for 1 hour, then at 4° C overnight. The resulted precipitates were removed by centrifuging. […] This antiserum was then dialyzed with 6M urea solution for 15 hours followed with phosphate buffer (0.007M NaH2 PO4,pH 6.3) for 2 days. The resulting solution was passed through a DEAE-cellulose column and the first fraction (gamma globulin fraction,γG-fraction) was collected with examining the absorbance at 280nm. […] The γG-fraction was dialyzed with water and lyophilized for the stock.
According to the same manner as in Example 1, the dopamine specific antibody and γG-fraction thereof was obtained.
(§2) The specificity of antisera to the antigens was examined by the Ouchterlony method. […]

[4] = test system: antiserum to epinephrine-BSA; assay: Ouchterlony method, specificity of antiserum to epinephrine-BSA; type: binding, rabbit; design: key: the degree of the precipitate formation were indicated by the signs of +++, ++,+-, and -, in turn; the degree of the precipitate formation were indicated by the signs of +++, ++,+-, and -, in turn; the degree of the precipitate formation were indicated by the signs of +++, ++,+-, and -, in turn; the degree of the precipitate formation were indicated by the signs of +++, ++,+-, and -, in turn; conditions: antigen 1mg/ml; antiserum after removal of antibodies to carrier material
Description: as §1
Epinephrine specific antiserum was produced and γG-fraction was obtained by the same manner as in Example 1 using the phosphate buffered saline solution of the conjugate and complete Freund's adjuvant. […]

[5] = test system: antiserum to norepinephrine; assay: Ouchterlony method, specificity of antiserum to norepinephrine; type: binding, rabbit; design: key: the degree of the precipitate formation were indicated by the signs of +++, ++,+-, and -, in turn; the degree of the precipitate formation were indicated by the signs of +++, ++,+-, and -, in turn; the degree of the precipitate formation were indicated by the signs of +++, ++,+-, and -, in turn; the degree of the precipitate formation were indicated by the signs of +++, ++,+-, and -, in turn; conditions: antigen 1mg/ml; antiserum after removal of antibodies to carrier material
Description: as §1
By the same manner as in Example 1, the antiserum of norepinephrine was produced and after removing the BSA-antibody, the γ-globuline fraction was obtained.
as §2

Molecule	relative binding (%) [1]	other results
NCCc1ccc(O)c(O)c1 [dopamine]	88.0%	–
O=C(O)Cc1ccc(O)c(O)c1 [3,4-dihydroxyphenylacetic acid]	83.8%	–
norepinephrine-BSA: 20-30 moles of norepinephrine conjugated to one mole of BSA	–	degree of the precipitate formation, antiserum to L-dopa-BSA [2]: +-; degree of the precipitate formation, antiserum to dopamine-BSA [3]: +-; degree of the precipitate formation, antiserum to epinephrine-BSA [4]: +-; degree of the precipitate formation, antiserum to norepinephrine [5]: ++
N[C@@H](Cc1ccc(O)c(O)c1)C(=O)O [L-dopa]	90.7%	–
CNCC(O)c1ccc(O)c(OC)c1 (racemic) [DL-methanephrine]	81.7%	–
COc1cc(C(O)CN)ccc1O (racemic) [DL-normetanephrine]	97.2%	–
COc1cc(CC(=O)O)ccc1O [4-hydroxy-3-methoxyphenylacetic acid]	91.7%	–
CNC[C@H](O)c1ccc(O)c(O)c1 [L-epinephrine]	0%	–
CC(C)NC[C@H](O)c1ccc(O)c(O)c1 [L-isoproterenol]	72.9%	–
NC[C@H](O)c1ccc(O)c(O)c1 [L-norepinephrine]	54.8%	–

Reference: US4122078A, “Antigens and antibodies of catecholamines” (priority 1975, dated 1978)
